Here are results for 8 cell lines from the supplement of paper PMC10307832.

Holding throughout (experiment): relative viability (nuclei count vs DMSO), 5 days (fraction); higher = more cells survive
Compound in the experiment “Quizartinib + Trametinib”: CC(C)(C)c1cc(NC(=O)Nc2ccc(-c3cn4c(n3)sc3cc(OCCN5CCOCC5)ccc34)cc2)no1 [Quizartinib] + CC(=O)Nc1cccc(-n2c(=O)n(C3CC3)c(=O)c3c(Nc4ccc(I)cc4F)n(C)c(=O)c(C)c32)c1 [Trametinib] (partner 0.02 µM)
The procedure, abridged:
(§1)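 Lung cancer cell lines in 1536-well plates were dosed by pin tool the day after seeding, either with one drug alone or with a fixed anchor-drug dose plus five library-drug doses (not always all listed) in √10 steps. After 5 days, cells were fixed and their nuclei stained in one step (final 0.05% Triton X-100, 1% formaldehyde, 1 ug/ml Hoechst), then counted on 4× images. Relative viability is the nuclei count in treated wells divided by that in vehicle wells. Values are medians of duplicate plates.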

Compound in experiment [1]: CC(C)(C)c1cc(NC(=O)Nc2ccc(-c3cn4c(n3)sc3cc(OCCN5CCOCC5)ccc34)cc2)no1 [Quizartinib] + CC(=O)c1c(C)c2cnc(Nc3ccc(N4CCNCC4)cn3)nc2n(C2CCCC2)c1=O [Palbociclib] (partner 0.5 µM)
The procedure, abridged: as §1

Compound in the experiment “Quizartinib + Navitoclax”: CC(C)(C)c1cc(NC(=O)Nc2ccc(-c3cn4c(n3)sc3cc(OCCN5CCOCC5)ccc34)cc2)no1 [Quizartinib] + CC1(C)CCC(c2ccc(Cl)cc2)=C(CN2CCN(c3ccc(C(=O)NS(=O)(=O)c4ccc(N[C@H](CCN5CCOCC5)CSc5ccccc5)c(S(=O)(=O)C(F)(F)F)c4)cc3)CC2)C1 [Navitoclax] (partner 0.5 µM)
The method in brief: as §1

Compound in the experiment “Quizartinib + Linsitinib”: CC(C)(C)c1cc(NC(=O)Nc2ccc(-c3cn4c(n3)sc3cc(OCCN5CCOCC5)ccc34)cc2)no1 [Quizartinib] + C[C@]1(O)C[C@@H](c2nc(-c3ccc4ccc(-c5ccccc5)nc4c3)c3c(N)nccn32)C1 [Linsitinib] (partner 1 µM)
The method in brief: as §1

Regarding LU99A, the relative viability stood at 0.485 with Quizartinib + Trametinib (first compound 0.001 µM); 0.503 with Quizartinib + Trametinib (first compound 0.003162 µM); 0.554 in the experiment with Quizartinib + Trametinib (first compound 0.01 µM); 0.583 with Quizartinib + Trametinib (first compound 0.03162 µM); 0.518 in the experiment with Quizartinib + Trametinib (first compound 0.1 µM); 0.39 in experiment [1] (first compound 0.001 µM). Also, the relative viability in experiment [1] (first compound 0.003162 µM) was found to be 0.404; in experiment [1] (first compound 0.01 µM), 0.422; in experiment [1] (first compound 0.03162 µM), 0.432; in experiment [1] (first compound 0.1 µM), 0.249; with Quizartinib + Navitoclax (first compound 0.001 µM), 0.796; in the experiment with Quizartinib + Navitoclax (first compound 0.003162 µM), 0.8. For the same cell line, the relative viability with Quizartinib + Navitoclax (first compound 0.01 µM) turned out to be 0.913; with Quizartinib + Navitoclax (first compound 0.03162 µM), 0.776; with Quizartinib + Navitoclax (first compound 0.1 µM) it was 0.383; with Quizartinib + Linsitinib (first compound 0.001 µM) it was 0.509; with Quizartinib + Linsitinib (first compound 0.003162 µM), 0.504; with Quizartinib + Linsitinib (first compound 0.01 µM), 0.628. The relative viability came to 0.497 with Quizartinib + Linsitinib (first compound 0.03162 µM) and 0.417 with Quizartinib + Linsitinib (first compound 0.1 µM).
For LXF-289, the relative viability with Quizartinib + Trametinib (first compound 0.001 µM) turned out to be 0.613; with Quizartinib + Trametinib (first compound 0.003162 µM), 0.692; with Quizartinib + Trametinib (first compound 0.01 µM), 0.709; in the experiment with Quizartinib + Trametinib (first compound 0.03162 µM), 0.702; with Quizartinib + Trametinib (first compound 0.1 µM), 0.622; in experiment [1] (first compound 0.001 µM) it was 0.52. The relative viability in experiment [1] (first compound 0.003162 µM) came to 0.603; in experiment [1] (first compound 0.01 µM), 0.649; in experiment [1] (first compound 0.03162 µM), 0.594; in experiment [1] (first compound 0.1 µM) it was 0.574; with Quizartinib + Navitoclax (first compound 0.001 µM), 0.804; with Quizartinib + Navitoclax (first compound 0.003162 µM), 0.961. Also, the relative viability is 0.976 with Quizartinib + Navitoclax (first compound 0.01 µM); 0.948 with Quizartinib + Navitoclax (first compound 0.03162 µM); 0.912 with Quizartinib + Navitoclax (first compound 0.1 µM); 0.899 with Quizartinib + Linsitinib (first compound 0.001 µM); 0.944 with Quizartinib + Linsitinib (first compound 0.003162 µM); 1.02 with Quizartinib + Linsitinib (first compound 0.01 µM). Further, the relative viability is 0.958 with Quizartinib + Linsitinib (first compound 0.03162 µM) and 0.92 with Quizartinib + Linsitinib (first compound 0.1 µM).
As for NCI-H23, the relative viability with Quizartinib + Trametinib (first compound 0.001 µM) came out at 0.353; with Quizartinib + Trametinib (first compound 0.003162 µM), 0.346; with Quizartinib + Trametinib (first compound 0.01 µM) it was 0.456; in the experiment with Quizartinib + Trametinib (first compound 0.03162 µM), 0.43; with Quizartinib + Trametinib (first compound 0.1 µM), 0.312; in experiment [1] (first compound 0.001 µM) it was 0.425. In addition, the relative viability in experiment [1] (first compound 0.003162 µM) came out at 0.543; in experiment [1] (first compound 0.01 µM), 0.548; in experiment [1] (first compound 0.03162 µM) it was 0.453; in experiment [1] (first compound 0.1 µM), 0.396; with Quizartinib + Navitoclax (first compound 0.003162 µM), 0.852; with Quizartinib + Navitoclax (first compound 0.01 µM), 0.915. Besides, the relative viability stood at 0.773 in the experiment with Quizartinib + Navitoclax (first compound 0.03162 µM); 0.472 with Quizartinib + Navitoclax (first compound 0.1 µM); 0.577 with Quizartinib + Linsitinib (first compound 0.003162 µM); 0.615 with Quizartinib + Linsitinib (first compound 0.01 µM); 0.555 with Quizartinib + Linsitinib (first compound 0.03162 µM); 0.661 in the experiment with Quizartinib + Linsitinib (first compound 0.1 µM).
Regarding NCI-H322M, the relative viability turned out to be 0.482 with Quizartinib + Trametinib (first compound 0.001 µM); 0.536 with Quizartinib + Trametinib (first compound 0.003162 µM); 0.617 with Quizartinib + Trametinib (first compound 0.01 µM); 0.504 with Quizartinib + Trametinib (first compound 0.03162 µM); 0.536 in the experiment with Quizartinib + Trametinib (first compound 0.1 µM); 0.429 in experiment [1] (first compound 0.001 µM). In addition, the relative viability in experiment [1] (first compound 0.003162 µM) amounted to 0.477; in experiment [1] (first compound 0.01 µM), 0.49; in experiment [1] (first compound 0.03162 µM), 0.512; in experiment [1] (first compound 0.1 µM), 0.527; with Quizartinib + Navitoclax (first compound 0.001 µM), 1.1; with Quizartinib + Navitoclax (first compound 0.003162 µM) it was 1.08. Besides, the relative viability with Quizartinib + Navitoclax (first compound 0.01 µM) was determined as 1.19; with Quizartinib + Navitoclax (first compound 0.03162 µM) it was 1.37; in the experiment with Quizartinib + Navitoclax (first compound 0.1 µM), 1.23; with Quizartinib + Linsitinib (first compound 0.001 µM), 0.798; with Quizartinib + Linsitinib (first compound 0.003162 µM), 1.01; with Quizartinib + Linsitinib (first compound 0.01 µM), 1.02. Moreover, the values for the relative viability with Quizartinib + Linsitinib (first compound 0.03162 µM) and with Quizartinib + Linsitinib (first compound 0.1 µM) were 0.917 and 0.92, respectively.
As for NCI-H441, the relative viability with Quizartinib + Trametinib (first compound 0.001 µM) stood at 0.35; with Quizartinib + Trametinib (first compound 0.003162 µM), 0.563; with Quizartinib + Trametinib (first compound 0.01 µM) it was 0.45; in the experiment with Quizartinib + Trametinib (first compound 0.03162 µM) it was 0.368; in the experiment with Quizartinib + Trametinib (first compound 0.1 µM) it was 0.456; in experiment [1] (first compound 0.001 µM), 0.191. Besides, the relative viability in experiment [1] (first compound 0.003162 µM) was 0.222; in experiment [1] (first compound 0.01 µM), 0.169; in experiment [1] (first compound 0.03162 µM) it was 0.191; in experiment [1] (first compound 0.1 µM), 0.219; in the experiment with Quizartinib + Navitoclax (first compound 0.001 µM), 0.562; with Quizartinib + Navitoclax (first compound 0.003162 µM) it was 0.567. Also, the relative viability with Quizartinib + Navitoclax (first compound 0.01 µM) stood at 1.29; with Quizartinib + Navitoclax (first compound 0.03162 µM), 0.591; with Quizartinib + Navitoclax (first compound 0.1 µM) it was 1.05; with Quizartinib + Linsitinib (first compound 0.001 µM) it was 0.357; in the experiment with Quizartinib + Linsitinib (first compound 0.003162 µM), 0.645; in the experiment with Quizartinib + Linsitinib (first compound 0.01 µM), 0.607. In addition, the relative viability with Quizartinib + Linsitinib (first compound 0.03162 µM) came out at 0.51; in the experiment with Quizartinib + Linsitinib (first compound 0.1 µM), 0.479.
On to NCI-H460, for which the relative viability with Quizartinib + Trametinib (first compound 0.003162 µM) was found to be 0.152; with Quizartinib + Trametinib (first compound 0.01 µM), 0.104; with Quizartinib + Trametinib (first compound 0.1 µM) it was 0.0587; in experiment [1] (first compound 0.003162 µM), 0.136; in experiment [1] (first compound 0.01 µM), 0.188; in experiment [1] (first compound 0.1 µM), 0.125. For the same cell line, the relative viability with Quizartinib + Navitoclax (first compound 0.001 µM) is 1; in the experiment with Quizartinib + Navitoclax (first compound 0.003162 µM) it was 1.09; with Quizartinib + Navitoclax (first compound 0.01 µM), 1.24; with Quizartinib + Navitoclax (first compound 0.1 µM), 1.13; with Quizartinib + Linsitinib (first compound 0.001 µM) it was 0.583; with Quizartinib + Linsitinib (first compound 0.003162 µM), 0.572. Besides, the results for the relative viability with Quizartinib + Linsitinib (first compound 0.01 µM) and in the experiment with Quizartinib + Linsitinib (first compound 0.1 µM) were 0.782 and 0.708, respectively.
Regarding NCI-H520, the relative viability was found to be 0.465 with Quizartinib + Trametinib (first compound 0.003162 µM); 0.673 with Quizartinib + Trametinib (first compound 0.01 µM); 0.637 with Quizartinib + Trametinib (first compound 0.03162 µM); 0.486 in the experiment with Quizartinib + Trametinib (first compound 0.1 µM); 0.257 in experiment [1] (first compound 0.003162 µM); 0.251 in experiment [1] (first compound 0.01 µM). For the same cell line, the relative viability amounted to 0.196 in experiment [1] (first compound 0.03162 µM); 0.175 in experiment [1] (first compound 0.1 µM); 1.17 in the experiment with Quizartinib + Navitoclax (first compound 0.001 µM); 0.982 in the experiment with Quizartinib + Navitoclax (first compound 0.003162 µM); 1.19 with Quizartinib + Navitoclax (first compound 0.01 µM); 0.948 with Quizartinib + Navitoclax (first compound 0.03162 µM). Besides, the relative viability in the experiment with Quizartinib + Navitoclax (first compound 0.1 µM) was determined as 0.888; in the experiment with Quizartinib + Linsitinib (first compound 0.001 µM) it was 0.862; with Quizartinib + Linsitinib (first compound 0.003162 µM), 0.992; with Quizartinib + Linsitinib (first compound 0.01 µM) it was 0.888; with Quizartinib + Linsitinib (first compound 0.03162 µM), 0.934; in the experiment with Quizartinib + Linsitinib (first compound 0.1 µM), 0.859.
Take NCI-H647: the relative viability in the experiment with Quizartinib + Trametinib (first compound 0.001 µM) was 0.43; in the experiment with Quizartinib + Trametinib (first compound 0.003162 µM), 0.387; with Quizartinib + Trametinib (first compound 0.01 µM), 0.508; with Quizartinib + Trametinib (first compound 0.03162 µM), 0.434; with Quizartinib + Trametinib (first compound 0.1 µM), 0.396; in experiment [1] (first compound 0.001 µM) it was 0.371. The relative viability in experiment [1] (first compound 0.003162 µM) was determined as 0.348; in experiment [1] (first compound 0.01 µM) it was 0.413; in experiment [1] (first compound 0.03162 µM) it was 0.403; in experiment [1] (first compound 0.1 µM), 0.511; in the experiment with Quizartinib + Navitoclax (first compound 0.001 µM), 0.77; with Quizartinib + Navitoclax (first compound 0.003162 µM), 1.11. The relative viability worked out at 1.17 in the experiment with Quizartinib + Navitoclax (first compound 0.01 µM); 1.04 with Quizartinib + Navitoclax (first compound 0.03162 µM); 1.2 with Quizartinib + Navitoclax (first compound 0.1 µM); 1.17 with Quizartinib + Linsitinib (first compound 0.001 µM); 1.07 with Quizartinib + Linsitinib (first compound 0.003162 µM); 1.26 in the experiment with Quizartinib + Linsitinib (first compound 0.01 µM). Further, the values for the relative viability in the experiment with Quizartinib + Linsitinib (first compound 0.03162 µM) and with Quizartinib + Linsitinib (first compound 0.1 µM) were 1.18 and 1.45, respectively.
